Series [1] relates to Mtb H37Ra ITM-M006710 (ATCC 9431). The series can be described thus: Microplate Alamar Blue Assay (MABA) microdilution, Mtb H37Ra. The series is classed as cell-based, Mycobacterium tuberculosis. Conditions: for MIC: Mycobacterium tuberculosis. (The colour change of resazurin is a common sign of viable cells or microbes.)
The test system of series [2] is M. smegmatis DSM 43465 (ATCC 607). The series can be described thus: Microplate Alamar Blue Assay (MABA) microdilution, M. smegmatis. The series is classed as cell-based, Mycobacterium smegmatis.
Series [3] concerns Mycobacterium aurum DSM 43999 (ATCC 23366). In words: Microplate Alamar Blue Assay (MABA) microdilution, M. aurum. The series is classed as cell-based.
For series [4], the system named is Staphylococcus epidermidis CCM 4418 (ATCC 12228). In words: Antibacterial microdilution broth method, SE. Conditions: 24 h, read-out: MIC SE. The series is classed as cell-based. For orientation: In broth dilution the organism is exposed to a series of concentrations in liquid medium.
Series [5] has as its system Candida albicans CCM 8320 (ATCC 24433). The series can be described thus: Antifungal microdilution broth method, CA. The series is classed as cell-based.
Series [6] concerns Candida krusei CCM 8271 (ATCC 6258). In words: Antifungal microdilution broth method, CK. The series is classed as cell-based. Conditions: Pichia kudriavzevii.
For series [7], the system named is Candida parapsilosis CCM 8260 (ATCC 22019). In words: Antifungal microdilution broth method, CP. The series is classed as cell-based. Conditions: Lodderomyces parapsilosis.
Series [8] relates to Candida tropicalis CCM 8264 (ATCC 750). In words: Antifungal microdilution broth method, CT. The series is classed as cell-based.
The subject of series [9] is Aspergillus fumigatus ATCC 204305. The series can be described thus: Antifungal microdilution broth method, AF. The series is classed as cell-based.
In series [10] the test system is Aspergillus flavus CCM 8363. The series can be described thus: Antifungal microdilution broth method, AFla. The series is classed as cell-based. As to the method: 6. In vitro antifungal activity screening
Antifungal activity evaluation was performed using a microdilution broth method according to EUCAST instructions (The European Committee on Antimicrobial Susceptibility Testing) with slight modifications. Eight fungal strains (four yeast and four mould strains) were used for antifungal […]
and Trichophyton interdigitale CCM 8377 (ATCC 9533). Tested strains were purchased from the Czech Collection of Microorganisms (CCM, Brno, Czech Republic) or from the American Type Collection Cultures (ATCC, Manassas, VA, USA). Tested compounds were dissolved in DMSO and diluted in a twofold manner with RPMI 1640 medium, with glutamine and 2% glucose, buffered to pH 7.0 with MOPS (3-morpholinopropane-1-sulfonic acid). The final concentration of DMSO in the testing […]
Static incubation was performed in the dark and in humid atmosphere, at 35±2 °C, for 24 and 48 h (72 and 120 h for Trichophyton interdigitale respectively). Positive controls consisted of test microbe solely, while negative controls consisted of cultivation medium and DMSO. Visual inspection and metabolic activity indicator, Alamar Blue (ThermoFisher Scientific), were used for MIC endpoint evaluation. The internal quality standards, amphotericin B (Sigma-Aldrich) and voriconazole (Toronto research Chemicals, CA) were involved in assays (for MIC of standards see Table S5). All experiments were conducted in duplicates.
For the results to be valid, the difference in MIC for one compound determined from two parallel measurements must not be greater than one step on the dilution scale.

For series [11], the system named is Lichtheimia corymbifera CCM 8077. The series can be described thus: Antifungal microdilution broth method, LC. The series is classed as cell-based.
The subject of series [12] is Trichophyton interdigitale CCM 8377 (ATCC 9533). The series can be described thus: Antifungal microdilution broth method, TI. The series is classed as cell-based.
The subject of series [13] is Klebsiella pneumoniae CCM 4415 (ATCC 10031). In words: Antibacterial microdilution broth method, KP. Conditions: read after 24 h of incubation.
Setting [14] is: pH 6.6, read-out: MIC Mtb H37Ra.
Setting [15] is: pH 6, calculated from µg/mL, read-out: MIC Mtb H37Ra.
The mark [16] stands for this setting: 24 h, read-out: MIC, spectrophotometric detection.
The mark [17] stands for this setting: internal quality control, naked eye, no visible growth, 24 h (yeasts), read-out: MIC, visual detection.
Where [18] appears, read: ATCC204305, internal quality control, naked eye, no visible growth, 48 h (moulds), read-out: MIC, visual detection.
Setting [19] is: CCM8363, internal quality control, naked eye, no visible growth, 48 h (moulds), read-out: MIC, visual detection.
The mark [20] stands for this setting: CCM8077, internal quality control, naked eye, no visible growth, 48 h (moulds), read-out: MIC, visual detection.
The mark [21] stands for this setting: internal quality control, naked eye, no visible growth, 48 h (moulds), read-out: MIC, visual detection.
Where [22] appears, read: internal quality control, 530 nm, inhibition of growth of 90%, 24 h (yeasts), read-out: MIC, spectrophotometric detection.

Converted amounts (≈) assume the structure as drawn. Like-named read-outs stand apart in the source and are kept apart here.

For the compound `O=C(N[C@@H](COCc1ccccc1)C(=O)O)c1cnccn1` [PC-L-OBn-Ser, O-benzyl-N-(pyrazine-2-carbonyl)-L-serine], the MIC was at least 500 µg/mL in series [1] (pH 6); at least 500 µg/mL in series [1] (pH 6, read-out: MIC Mtb H37Ra); at least 500 µg/mL in series [1] (setting [14]); at least 1660 µM in [1] (setting [15]); 250 µg/mL (≈ 830 µM) in series [2] (Mycolicibacterium smegmatis, pH 6, read-out: MIC M. smegmatis µg/mL); at least 500 µg/mL in series [2] (Mycolicibacterium smegmatis, pH 6.6, read-out: MIC M. smegmatis). The MIC was 62.5 µg/mL (≈ 207 µM) in series [3] (Mycolicibacterium aurum, pH 6, read-out: MIC M. aurum µg/mL); at least 500 µg/mL in series [3] (Mycolicibacterium aurum, pH 6.6, read-out: MIC M. aurum); over 500 µM in [4]; over 500 µM in [5] (24 h, read-out: MIC CA); over 500 µM in [6] (24 h, read-out: MIC CK); over 500 µM in series [7] (24 h, read-out: MIC CP). The MIC in series [8] (24 h, read-out: MIC CT) was over 500 µM; in [9] (ATCC204305, 48 h, read-out: MIC AF), over 500 µM; in series [10] (CCM8363, read after 48 h (filamentous fungi), read-out: MIC AFla) it was over 500 µM; in series [11] (CCM8077, 48 h, read-out: MIC LC), over 500 µM; in series [12] (48 h, read-out: MIC TI) it was over 500 µM. Moreover, the “MIC KP” value in series [13] was over 500 µM.

As to `C[C@@H](c1ncncc1F)[C@](O)(Cn1cncn1)c1ccc(F)cc1F` [voriconazole, reference compound], the MIC in series [5] (setting [16]) was 0.03 µg/mL; in series [5] (setting [17]), over 16 µg/mL; in [6] (setting [16]), 0.25 µg/mL; in series [6] (setting [17]), over 16 µg/mL; in series [7] (setting [16]), 0.03 µg/mL; in series [7] (setting [17]) it was over 16 µg/mL. Further, the MIC in series [8] (setting [16]) is 0.0625 µg/mL; in series [8] (setting [17]), over 16 µg/mL; in series [9] (ATCC204305, 48 h, read-out: MIC, spectrophotometric detection) it was 0.25 µg/mL; in series [9] (setting [18]) it was 1 µg/mL; in [10] (CCM8363, 48 h, read-out: MIC, spectrophotometric detection), 1 µg/mL; in series [10] (setting [19]) it was over 16 µg/mL. Also, the MIC in series [11] (CCM8077, 48 h, read-out: MIC, spectrophotometric detection) is over 16 µg/mL; in [11] (setting [20]) it was over 16 µg/mL; in series [12] (48 h, read-out: MIC, spectrophotometric detection) it was over 16 µg/mL; in series [12] (setting [21]), over 16 µg/mL.

Turning to `COC(=O)C(CC(C)C)NC(=O)c1cnc(Cl)cn1` (centres unmarked), the “MIC Mtb H37Ra” value in [1] (pH 6) amounted to 3.91 µg/mL (≈ 13.7 µM); in series [1] (pH 6.6), 62.5 µg/mL (≈ 219 µM).

On to `O=C(O)c1cn(C2CC2)c2cc(N3CCNCC3)c(F)cc2c1=O` [CPX, ciprofloxacin, reference compound], for which the MIC was 0.25 µg/mL in series [1] (pH 6, read-out: MIC Mtb H37Ra); 0.125 to 0.25 µg/mL in [1] (setting [14]); 0.75 µM in [1] (setting [15]); 0.0625 to 0.25 µg/mL (≈ 0.189 to 0.754 µM) in series [2] (Mycolicibacterium smegmatis, pH 6; read-out: MIC M. smegmatis); 0.0625 to 0.125 µg/mL (≈ 0.189 to 0.377 µM) in series [2] (Mycolicibacterium smegmatis, pH 6.6; read-out: MIC M. smegmatis); 0.0625 µg/mL (≈ 0.189 µM) in series [3] (Mycolicibacterium aurum, pH 6; read-out: MIC M. aurum). In series [3] (Mycolicibacterium aurum, pH 6.6; read-out: MIC M. aurum), the MIC is 0.0078 to 0.0156 µg/mL (≈ 0.0235 to 0.0471 µM).

Take `C[C@@H]1[C@H](O)[C@@H](C)/C=C/C=C/C=C/C=C/C=C/C=C/C=C/[C@H](O[C@@H]2O[C@H](C)[C@@H](O)[C@H](N)[C@@H]2O)C[C@@H]2O[C@](O)(C[C@@H](O)C[C@@H](O)[C@H](O)CC[C@@H](O)C[C@@H](O)CC(=O)O[C@H]1C)C[C@H](O)[C@H]2C(=O)O` [amphotericin B, reference compound]: the MIC in series [5] (setting [22]), in [5] (setting [17]), in [6] (setting [22]), in [6] (setting [17]), in series [7] (setting [22]) and in [7] (setting [17]) was 0.5 µg/mL in each case. In addition, the MIC is 1 µg/mL in series [8] (setting [22]); 1 µg/mL in series [8] (setting [17]); 1 µg/mL in [9] (ATCC204305, internal quality control, 530 nm, inhibition of growth of 90%, 48 h (moulds), read-out: MIC, spectrophotometric detection); 1 µg/mL in series [9] (setting [18]); 4 µg/mL in [10] (CCM8363, internal quality control, 530 nm, inhibition of growth of 90%, 48 h (moulds), read-out: MIC, spectrophotometric detection); 4 µg/mL in series [10] (setting [19]). For the same compound, the MIC was found to be 0.125 µg/mL in [11] (CCM8077, internal quality control, 530 nm, inhibition of growth of 90%, 48 h (moulds), read-out: MIC, spectrophotometric detection); 0.125 µg/mL in [11] (setting [20]); 1 µg/mL in series [12] (internal quality control, 530 nm, inhibition of growth of 90%, 48 h (moulds), read-out: MIC, spectrophotometric detection); 1 µg/mL in series [12] (setting [21]).

(Values after paper PMC7181131, “N-Pyrazinoyl Substituted Amino Acids as Potential Antimycobacterial Agents—the Synthesis and Biological Evaluation of Enantiomers” (Molecules, 2020).)
